# Data as given in publication PMC6979384, “Characterization of the plant homeodomain (PHD) reader family for their histone tail interactions” (Epigenetics & Chromatin, 2020).
# Tests used:
# Experiment in all cases: Histone peptide microarray
# Type in all cases: binding, human
# Conditions in all cases: sheet "Array Heatmap", total n = 4
# CHD5 (PCC) = system: CHD5 (PCC)
# Method in brief: (§1)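 GST-PHD reader, 0.5 μM, probed on 293-peptide histone array (single/combinatorial PTMs); optimized array protocol; signal = mean ± SD, n = 4.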
# ING3 = system: ING3
# Method in brief: as §1
# KDM5B (1) = system: KDM5B (1)
# Method in brief: as §1
# CHD4 (PPCC) = system: CHD4 (PPCC)
# Method in brief: as §1
# BAZ2B = system: BAZ2B
# Method in brief: as §1
# PHF21A = system: PHF21A
# Method in brief: as §1
# PHF8 = system: PHF8
# Method in brief: as §1
# SP140L = system: SP140L
# Method in brief: as §1
# DIDO1 = system: DIDO1
# Method in brief: as §1
# ING4 = system: ING4
# Method in brief: as §1
# TAF3 = system: TAF3
# Method in brief: as §1
# KDM5B (3) = system: KDM5B (3)
# Method in brief: as §1
# AIRE (PP) = system: AIRE (PP)
# Method in brief: as §1
# MORC3 (CW) = system: MORC3 (CW)
# Method in brief: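 GST-tagged PHD readers, 0.5 μM, probed on a microarray of 293 synthetic histone peptides carrying single or combinatorial PTMs (optimized Petell protocol). Signals are averaged over 4 replicates and expressed as relative binding.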
# BPTF (PB) = system: BPTF (PB)
# Method in brief: as §1
# ING1 = system: ING1
# Method in brief: as §1
# DPF2 (PPC2W2) = system: DPF2 (PPC2W2)
# Method in brief: as §1
# KDM5A (1) = system: KDM5A (1)
# Method in brief: as §1
# ING5 = system: ING5
# Method in brief: as §1
# ING2 = system: ING2
# Method in brief: as §1
# RAG2 = system: RAG2
# Method in brief: as §1
# KDM4C (TTP) = system: KDM4C (TTP)
# Method in brief: as §1
# TRIM66 (PB) = system: TRIM66 (PB)
# Method in brief: as §1
# PHF23 = system: PHF23
# Method in brief: as §1
# MLL5 = system: MLL5
# Method in brief: as §1
# CHD5 (PPCC) = system: CHD5 (PPCC)
# Method in brief: as §1
# PHF13 = system: PHF13
# Method in brief: as §1
# KDM7A = system: KDM7A
# Method in brief: as §1
# PHF2 = system: PHF2
# Method in brief: as §1
# PHRF1 (RP) = system: PHRF1 (RP)
# Method in brief: as §1
# KDM5A (3) = system: KDM5A (3)
# Method in brief: as §1
# [1] = GST-tagged reader, histone peptide array
substance,measurement,setting,value
H3K18me2: H3 1-20 [Peptide H3K18me2],"Array Heatmap signal, CHD5 (PCC)",CHD5 (PCC); [1],0.7562
same,"Array Heatmap signal, ING3",ING3; [1],0.447
same,"Array Heatmap signal, KDM5B (1)",KDM5B (1); [1],0.731
same,"Array Heatmap signal, CHD4 (PPCC)",CHD4 (PPCC); [1],0.5307
same,"Array Heatmap signal, BAZ2B",BAZ2B; [1],0.4823
same,"Array Heatmap signal, PHF21A",PHF21A; [1],0.4944
same,"Array Heatmap signal, PHF8",PHF8; [1],0.3314
same,"Array Heatmap signal, SP140L",SP140L; [1],0.3547
same,"Array Heatmap signal, DIDO1",DIDO1; [1],0.6131
same,"Array Heatmap signal, ING4",ING4; [1],0.4353
same,"Array Heatmap signal, TAF3",TAF3; [1],0.2642
same,"Array Heatmap signal, KDM5B (3)",KDM5B (3); [1],0.4828
same,"Array Heatmap signal, AIRE (PP)",AIRE (PP); [1],0.593
same,"Array Heatmap signal, MORC3 (CW)",MORC3 (CW); [1],0.432
same,"Array Heatmap signal, BPTF (PB)",BPTF (PB); [1],0.334
same,"Array Heatmap signal, ING1",ING1; [1],0.5097
same,"Array Heatmap signal, DPF2 (PPC2W2)",DPF2 (PPC2W2); [1],0.713
same,"Array Heatmap signal, KDM5A (1)",KDM5A (1); [1],0.4854
same,"Array Heatmap signal, ING5",ING5; [1],0.3565
same,"Array Heatmap signal, ING2",ING2; [1],0.5955
same,"Array Heatmap signal, RAG2",RAG2; [1],0.2403
same,"Array Heatmap signal, KDM4C (TTP)",KDM4C (TTP); [1],0.5076
same,"Array Heatmap signal, TRIM66 (PB)",TRIM66 (PB); [1],0.5483
same,"Array Heatmap signal, PHF23",PHF23; [1],0.5164
same,"Array Heatmap signal, MLL5",MLL5; [1],0.5113
same,"Array Heatmap signal, CHD5 (PPCC)",CHD5 (PPCC); [1],0.548
same,"Array Heatmap signal, PHF13",PHF13; [1],0.5815
same,"Array Heatmap signal, KDM7A",KDM7A; [1],0.3495
same,"Array Heatmap signal, PHF2",PHF2; [1],0.4223
same,"Array Heatmap signal, PHRF1 (RP)",PHRF1 (RP); [1],0.655
same,"Array Heatmap signal, KDM5A (3)",KDM5A (3); [1],0.5609
H3K23ac (1-32): H3 1-32,Array Heatmap value (peptide array signal),"CHD5 (PCC); CHD5 (PCC), each array performed twice",0.6958
same,Array Heatmap value (peptide array signal),"ING3; ING3, each array performed twice",0.4476
same,Array Heatmap value (peptide array signal),"KDM5B (1); KDM5B (1), each array performed twice",0.696
same,Array Heatmap value (peptide array signal),"CHD4 (PPCC); CHD4 (PPCC), each array performed twice",0.5377
same,Array Heatmap value (peptide array signal),"BAZ2B; BAZ2B, each array performed twice",0.4309
same,Array Heatmap value (peptide array signal),"PHF21A; PHF21A, each array performed twice",0.4363
same,Array Heatmap value (peptide array signal),"PHF8; PHF8, each array performed twice",0.3314
same,Array Heatmap value (peptide array signal),"SP140L; SP140L, each array performed twice",0.3597
same,Array Heatmap value (peptide array signal),"DIDO1; DIDO1, each array performed twice",0.6401
same,Array Heatmap value (peptide array signal),"ING4; ING4, each array performed twice",0.4368
same,Array Heatmap value (peptide array signal),"TAF3; TAF3, each array performed twice",0.2562
same,Array Heatmap value (peptide array signal),"KDM5B (3); KDM5B (3), each array performed twice",0.4657
same,Array Heatmap value (peptide array signal),"AIRE (PP); AIRE (PP), each array performed twice",0.5525
same,Array Heatmap value (peptide array signal),"MORC3 (CW); MORC3 (CW), each array performed twice",0.4909
same,Array Heatmap value (peptide array signal),"BPTF (PB); BPTF (PB), each array performed twice",0.3332
same,Array Heatmap value (peptide array signal),"ING1; ING1, each array performed twice",0.5079
same,Array Heatmap value (peptide array signal),"DPF2 (PPC2W2); DPF2 (PPC2W2), each array performed twice",0.7046
same,Array Heatmap value (peptide array signal),"KDM5A (1); KDM5A (1), each array performed twice",0.4665
same,Array Heatmap value (peptide array signal),"ING5; ING5, each array performed twice",0.3453
same,Array Heatmap value (peptide array signal),"ING2; ING2, each array performed twice",0.596
same,Array Heatmap value (peptide array signal),"RAG2; RAG2, each array performed twice",0.2372
same,Array Heatmap value (peptide array signal),"KDM4C (TTP); KDM4C (TTP), each array performed twice",0.4876
same,Array Heatmap value (peptide array signal),"TRIM66 (PB); TRIM66 (PB), each array performed twice",0.6504
same,Array Heatmap value (peptide array signal),"PHF23; PHF23, each array performed twice",0.526
same,Array Heatmap value (peptide array signal),"MLL5; MLL5, each array performed twice",0.5116
same,Array Heatmap value (peptide array signal),"CHD5 (PPCC); CHD5 (PPCC), each array performed twice",0.5376
same,Array Heatmap value (peptide array signal),"PHF13; PHF13, each array performed twice",0.5924
same,Array Heatmap value (peptide array signal),"KDM7A; KDM7A, each array performed twice",0.3346
same,Array Heatmap value (peptide array signal),"PHF2; PHF2, each array performed twice",0.4393
same,Array Heatmap value (peptide array signal),"PHRF1 (RP); PHRF1 (RP), each array performed twice",0.68
same,Array Heatmap value (peptide array signal),"KDM5A (3); KDM5A (3), each array performed twice",0.4863
